Target: laccase (CotA) (Bacillus sp. HR03, UniProt B9W2C5)
Assay: biochemical

laccase (CotA), sequence (B9W2C5 1-513): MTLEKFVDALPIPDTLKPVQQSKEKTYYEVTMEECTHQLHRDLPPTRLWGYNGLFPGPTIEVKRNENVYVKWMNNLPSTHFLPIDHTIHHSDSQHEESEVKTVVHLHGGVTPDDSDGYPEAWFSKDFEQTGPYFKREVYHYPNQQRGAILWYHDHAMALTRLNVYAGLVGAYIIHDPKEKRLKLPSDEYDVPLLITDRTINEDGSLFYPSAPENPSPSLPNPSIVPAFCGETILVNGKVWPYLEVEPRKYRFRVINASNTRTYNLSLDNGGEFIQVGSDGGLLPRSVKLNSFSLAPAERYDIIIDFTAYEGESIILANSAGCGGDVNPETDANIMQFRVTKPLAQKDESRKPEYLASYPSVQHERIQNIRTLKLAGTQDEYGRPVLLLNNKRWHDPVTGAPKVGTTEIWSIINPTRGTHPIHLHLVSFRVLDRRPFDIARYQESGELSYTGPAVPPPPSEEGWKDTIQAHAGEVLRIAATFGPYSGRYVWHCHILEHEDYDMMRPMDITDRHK

- Kd: 48.5 nM
SMILES: NCCc1ccc(O)c(O)c1 [dopamine]
